Measured values taken from patent publication US20090018111A1, “Novel Antimicrobial Medicament” (priority 2004, published 2009).
Read-outs that look alike come from different tables or passages of the source.

Tests used:
Assay in all cases: Sensitivity test (agar dilution)
S. epidermidis IAM1296 = format: cell-based, Staphylococcus epidermidis; conditions: Staphylococcus epidermidis, read-out: MIC
Experimental: (§1) The antibacterial activities were tested against various 18 bacteria (27 standard strains) which are representative bacteria caused clinically infectious disease (Staphylococcus aureus 3 strains, Staphylococcus epidermidis 1 strain, Micrococcus luteus 1 strain, Streptococcus pyogenes 1 strain, Enterococcus faecalis 1 strain, Enterococcus faecium 1 strain, Bacillus subtilis 1 strain, Escherichia coli 3 strains, Klebsiella pneumoniae 1 strain, Proteus mirabilis 1 strain, Proteus vulgaris 2 strains, Pseudomonas aeruginosa 3 strains, Serratia marcescens 2 strains, Enterobacter aerogenes 1 strain, Stenotrophomonas maltophilia 1 strain, Enterobacter cloacae 1 strain, Citrobacter freundii 1 strain, Moraxella catarrhalis 2 strains).
(§2) According to the standard method of Japan Chemotherapeutic Society (Chemotherapy, vol. […], p 76-79 (1981)) the test was carried out using the agar dilution method. After dissolving test samples in distilled water, agar medium containing the test samples was prepared in such a manner that the final concentration became twice serial dilution by pouring serially diluted combination drug solution or a single drug solution into agar medium. As agar medium was used Mueller Hinton Agar medium (MHA). Then, each strain was cultivated over night at 37° C. in an incubator and suspended in buffered saline solution with gelatin (BSG) in the concentration of about 10^6 CFU/ml. The suspension (about 5 μl) containing test strains was inoculated to the medium containing the test samples by Micro Planter.
(§3) When the sample is subjected to sensitivity test, this mixed solution was diluted by twice serial dilution method.
(§4) Furthermore, when the drug is solely used, each test sample was used as it is, and diluted by twice serial dilution method from the maximum concentration to the minimum concentration.
(§5) FIC index based on MIC value was calculated. […] Namely, when FIC index calculated by the following formula is equal or less than 1, the enhanced effect of the combination drug in said ratio is considered as positive. When FIC index is over 1, the enhanced effect of the combination drug in said ratio is considered as negative.
(§6) Formula of FIC index: FIC index=(MIC of Drug A in combination/MIC of Drug A alone)+(MIC of Drug B in combination/MIC of Drug B alone) N.C. in tables means being not calculated.

M. luteus ATCC9341 = format: cell-based, Micrococcus luteus; conditions: Micrococcus luteus
Experimental: as §1, §2, §3, §4, §5, §6

Str. pyogenes Cook = format: cell-based, Streptococcus pyogenes; conditions: Streptococcus pyogenes, read-out: MIC
Experimental: as §1, §2, §3, §4, §5, §6

E. faecalis ATCC19433 = format: cell-based, Enterococcus faecalis; conditions: Enterococcus faecalis, read-out: MIC
Experimental: as §1, §2, §3, §4, §5, §6

B. subtilis ATCC6633 = format: cell-based, Bacillus subtilis; conditions: Bacillus subtilis, read-out: MIC
Experimental: as §1, §2, §3, §4, §5, §6

P. mirabiris GN2425 = format: cell-based, Proteus mirabilis; conditions: Proteus mirabilis, read-out: MIC
Experimental: as §1, §2, §3, §4, §5, §6

P. vulgaris GN7919 = format: cell-based, Proteus vulgaris; conditions: Proteus vulgaris, read-out: MIC
Experimental: as §1, §2, §3, §4, §5, §6

P. vurgalis OX-19 = format: cell-based, Proteus vulgaris; conditions: Proteus vulgaris, read-out: MIC
Experimental: as §1, §2, §3, §4, §5, §6

S. marcescens GN6473 = format: cell-based, Serratia marcescens; conditions: Serratia marcescens, read-out: MIC
Experimental: as §1, §2, §3, §4, §5, §6

S. marcescens X 100 = format: cell-based, Serratia marcescens; conditions: Serratia marcescens, read-out: MIC
Experimental: as §1, §2, §3, §4, §5, §6

E. aerogenes ATCC13048 = format: cell-based, Enterobacter aerogenes; conditions: Klebsiella aerogenes, read-out: MIC
Experimental: as §1, §2, §3, §4, §5, §6

M. catarrhalis ATCC25238 = format: cell-based, Moraxella catarrhalis; conditions: Moraxella catarrhalis, read-out: MIC
Experimental: as §1, §2, §3, §4, §5, §6

M. catarrhalis ATCC8176 = format: cell-based, Moraxella catarrhalis; conditions: Moraxella catarrhalis, read-out: MIC
Experimental: as §1, §2, §3, §4, §5, §6

Question: Which results are given for C[C@@H](O)[C@H]1C(=O)N2C(C(=O)O)=C(S[C@@H]3CN[C@H](C(=O)N(C)C)C3)[C@H](C)[C@H]12 [MEPM, meropenem]?
Answer: MIC (S. epidermidis IAM1296; IAM1296, Concomitant (MEPM:SM = 1:1)): ≤ 0.016 µg/mL; MIC (S. epidermidis IAM1296; IAM1296, Concomitant (MEPM:SM = 1:2)): ≤ 0.016 µg/mL; MIC (S. epidermidis IAM1296; IAM1296, Concomitant (MEPM:SM = 1:4)): ≤ 0.016 µg/mL; MIC (S. epidermidis IAM1296; IAM1296, Concomitant drug (MEPM:SM = 2:1)): 0.063 µg/mL; MIC (S. epidermidis IAM1296; IAM1296, alone): 1 µg/mL; MIC (M. luteus ATCC9341; ATCC9341): 0.125 µg/mL; MIC (M. luteus ATCC9341; ATCC9341, Concomitant (MEPM:SM = 1:1), read-out: MIC): ≤ 0.016 µg/mL; MIC (M. luteus ATCC9341; ATCC9341, Concomitant (MEPM:SM = 1:2), read-out: MIC): ≤ 0.016 µg/mL; MIC (M. luteus ATCC9341; ATCC9341, Concomitant (MEPM:SM = 1:4), read-out: MIC): ≤ 0.016 µg/mL; MIC (M. luteus ATCC9341; ATCC9341, Concomitant drug (MEPM:SM = 2:1), read-out: MIC): ≤ 0.016 µg/mL; MIC (Str. pyogenes Cook; Concomitant (MEPM:SM = 1:1)): ≤ 0.016 µg/mL; MIC (Str. pyogenes Cook; Concomitant (MEPM:SM = 1:2)): ≤ 0.016 µg/mL; MIC (Str. pyogenes Cook; Concomitant (MEPM:SM = 1:4)): ≤ 0.016 µg/mL; MIC (Str. pyogenes Cook; Concomitant drug (MEPM:SM = 2:1)): ≤ 0.016 µg/mL; MIC (Str. pyogenes Cook; alone): ≤ 0.016 µg/mL; MIC (E. faecalis ATCC19433; ATCC19433, Concomitant (MEPM:SM = 1:1)): 1 µg/mL; MIC (E. faecalis ATCC19433; ATCC19433, Concomitant (MEPM:SM = 1:2)): 0.5 µg/mL; MIC (E. faecalis ATCC19433; ATCC19433, Concomitant (MEPM:SM = 1:4)): 0.25 µg/mL; MIC (E. faecalis ATCC19433; ATCC19433, Concomitant drug (MEPM:SM = 2:1)): 1 µg/mL; MIC (E. faecalis ATCC19433; ATCC19433, alone): 4 µg/mL; MIC (B. subtilis ATCC6633; ATCC6633, Concomitant (MEPM:SM = 1:1)): ≤ 0.016 µg/mL; MIC (B. subtilis ATCC6633; ATCC6633, Concomitant (MEPM:SM = 1:2)): ≤ 0.016 µg/mL; MIC (B. subtilis ATCC6633; ATCC6633, Concomitant (MEPM:SM = 1:4)): ≤ 0.016 µg/mL; MIC (B. subtilis ATCC6633; ATCC6633, Concomitant drug (MEPM:SM = 2:1)): ≤ 0.016 µg/mL; MIC (B. subtilis ATCC6633; ATCC6633, alone): 0.063 µg/mL; MIC (P. mirabiris GN2425; GN2425, Concomitant (MEPM:SM = 1:1)): ≤ 0.016 µg/mL; MIC (P. mirabiris GN2425; GN2425, Concomitant (MEPM:SM = 1:2)): 0.031 µg/mL; MIC (P. mirabiris GN2425; GN2425, Concomitant (MEPM:SM = 1:4)): ≤ 0.016 µg/mL; MIC (P. mirabiris GN2425; GN2425, Concomitant drug (MEPM:SM = 2:1)): 0.031 µg/mL; MIC (P. mirabiris GN2425; GN2425, alone): 0.063 µg/mL; MIC (P. vulgaris GN7919; GN7919, Concomitant (MEPM:SM = 1:1)): 0.031 µg/mL; MIC (P. vulgaris GN7919; GN7919, Concomitant (MEPM:SM = 1:2)): 0.031 µg/mL; MIC (P. vulgaris GN7919; GN7919, Concomitant (MEPM:SM = 1:4)): 0.031 µg/mL; MIC (P. vulgaris GN7919; GN7919, Concomitant drug (MEPM:SM = 2:1)): 0.031 µg/mL; MIC (P. vulgaris GN7919; GN7919, alone): 0.063 µg/mL; MIC (P. vurgalis OX-19; OX19, Concomitant (MEPM:SM = 1:1)): ≤ 0.016 µg/mL; MIC (P. vurgalis OX-19; OX19, Concomitant (MEPM:SM = 1:2)): ≤ 0.016 µg/mL; MIC (P. vurgalis OX-19; OX19, Concomitant (MEPM:SM = 1:4)): ≤ 0.016 µg/mL; MIC (P. vurgalis OX-19; OX19, Concomitant drug (MEPM:SM = 2:1)): 0.031 µg/mL; MIC (P. vurgalis OX-19; OX19, alone): 0.063 µg/mL; MIC (S. marcescens GN6473; GN6473, Concomitant (MEPM:SM = 1:1)): 0.031 µg/mL; MIC (S. marcescens GN6473; GN6473, Concomitant (MEPM:SM = 1:2)): 0.031 µg/mL; MIC (S. marcescens GN6473; GN6473, Concomitant (MEPM:SM = 1:4)): 0.031 µg/mL; MIC (S. marcescens GN6473; GN6473, Concomitant drug (MEPM:SM = 2:1)): 0.031 µg/mL; MIC (S. marcescens GN6473; GN6473, alone): 0.063 µg/mL; MIC (S. marcescens X 100; X100, Concomitant (MEPM:SM = 1:1)): ≤ 0.016 µg/mL; MIC (S. marcescens X 100; X100, Concomitant (MEPM:SM = 1:2)): ≤ 0.016 µg/mL; MIC (S. marcescens X 100; X100, Concomitant (MEPM:SM = 1:4)): ≤ 0.016 µg/mL; MIC (S. marcescens X 100; X100, Concomitant drug (MEPM:SM = 2:1)): 0.031 µg/mL; MIC (S. marcescens X 100; X100, alone): 0.031 µg/mL; MIC (E. aerogenes ATCC13048; ATCC13048, Concomitant (MEPM:SM = 1:1)): ≤ 0.016 µg/mL; MIC (E. aerogenes ATCC13048; ATCC13048, Concomitant (MEPM:SM = 1:2)): 0.031 µg/mL; MIC (E. aerogenes ATCC13048; ATCC13048, Concomitant (MEPM:SM = 1:4)): 0.031 µg/mL; MIC (E. aerogenes ATCC13048; ATCC13048, Concomitant drug (MEPM:SM = 2:1)): 0.031 µg/mL; MIC (E. aerogenes ATCC13048; ATCC13048, alone): 0.063 µg/mL; MIC (M. catarrhalis ATCC25238; ATCC25238, Concomitant (MEPM:SM = 1:1)): ≤ 0.016 µg/mL; MIC (M. catarrhalis ATCC25238; ATCC25238, Concomitant (MEPM:SM = 1:2)): ≤ 0.016 µg/mL; MIC (M. catarrhalis ATCC25238; ATCC25238, Concomitant (MEPM:SM = 1:4)): ≤ 0.016 µg/mL; MIC (M. catarrhalis ATCC25238; ATCC25238, Concomitant drug (MEPM:SM = 2:1)): ≤ 0.016 µg/mL; MIC (M. catarrhalis ATCC25238; ATCC25238, alone): ≤ 0.016 µg/mL; MIC (M. catarrhalis ATCC8176; ATCC8176, Concomitant (MEPM:SM = 1:1)): ≤ 0.016 µg/mL; MIC (M. catarrhalis ATCC8176; ATCC8176, Concomitant (MEPM:SM = 1:2)): ≤ 0.016 µg/mL; MIC (M. catarrhalis ATCC8176; ATCC8176, Concomitant (MEPM:SM = 1:4)): ≤ 0.016 µg/mL; MIC (M. catarrhalis ATCC8176; ATCC8176, Concomitant drug (MEPM:SM = 2:1)): ≤ 0.016 µg/mL; MIC (M. catarrhalis ATCC8176; ATCC8176, alone): ≤ 0.016 µg/mL
